Reference: patent US20240217951A1, “PCSK9 INHIBITORS AND METHODS OF USE THEREOF” (AstraZeneca AB, priority 2022, published 2024)

What was measured:
[1] = target: T1, potassium ion channel hERG (human Ether-á-go-go-Related Gene) (Homo sapiens, UniProt Q12809); assay: Assay 5 - hERG assay (SyncroPatch 384PE patch clamp, CHO cells); type: cell-based; details: geometric mean; CHO cells over-expressing hERG; read-out: Assay 5 (hERG Hu CHO IF EPh CR-Syncro) GMean IC50
T1 construct: expressed in transfected cells; host or cells: Chinese hamster ovary K1 (CHO)
T1 sequence (Q12809 whole entry): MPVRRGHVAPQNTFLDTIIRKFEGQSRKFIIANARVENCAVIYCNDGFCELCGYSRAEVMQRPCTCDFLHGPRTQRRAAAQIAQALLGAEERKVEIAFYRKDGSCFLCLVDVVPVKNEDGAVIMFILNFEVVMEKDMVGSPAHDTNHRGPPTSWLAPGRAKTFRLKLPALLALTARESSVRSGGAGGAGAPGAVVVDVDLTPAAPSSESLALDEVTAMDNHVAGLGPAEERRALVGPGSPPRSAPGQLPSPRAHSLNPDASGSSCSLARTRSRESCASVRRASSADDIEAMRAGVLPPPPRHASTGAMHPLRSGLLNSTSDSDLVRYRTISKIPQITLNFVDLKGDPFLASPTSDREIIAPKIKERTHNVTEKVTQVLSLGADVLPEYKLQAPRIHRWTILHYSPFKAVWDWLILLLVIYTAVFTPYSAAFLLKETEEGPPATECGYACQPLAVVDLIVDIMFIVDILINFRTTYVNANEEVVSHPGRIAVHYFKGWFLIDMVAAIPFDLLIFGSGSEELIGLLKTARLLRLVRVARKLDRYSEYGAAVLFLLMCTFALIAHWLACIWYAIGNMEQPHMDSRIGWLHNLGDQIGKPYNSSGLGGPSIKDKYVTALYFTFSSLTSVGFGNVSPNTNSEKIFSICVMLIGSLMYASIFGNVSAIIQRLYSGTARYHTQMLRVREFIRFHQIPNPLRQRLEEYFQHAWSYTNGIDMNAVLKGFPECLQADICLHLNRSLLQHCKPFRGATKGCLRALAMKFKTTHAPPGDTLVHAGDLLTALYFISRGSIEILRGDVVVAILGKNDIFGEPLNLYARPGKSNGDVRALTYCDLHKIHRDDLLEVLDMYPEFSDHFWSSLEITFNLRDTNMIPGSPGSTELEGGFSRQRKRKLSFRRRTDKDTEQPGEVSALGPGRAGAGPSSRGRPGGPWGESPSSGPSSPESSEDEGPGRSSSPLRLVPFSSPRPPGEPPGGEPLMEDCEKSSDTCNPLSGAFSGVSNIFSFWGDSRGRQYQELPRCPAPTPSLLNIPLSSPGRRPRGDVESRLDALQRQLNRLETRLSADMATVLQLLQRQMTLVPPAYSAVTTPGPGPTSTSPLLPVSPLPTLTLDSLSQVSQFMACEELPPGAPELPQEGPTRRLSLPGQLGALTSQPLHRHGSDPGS
Method in brief: (§1)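 Automated high-throughput patch clamp on CHO-K1 cells overexpressing hERG at room temperature, KF/KCl internal with escin, NMDG-containing external at pH 7.4. Six-point cumulative compound addition, 0.33% DMSO final; wells kept only with seal >30 MΩ, Z′ >0.4 and current >0.2 nA.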

[2] = target: GSK3β (Glycogen synthase kinase-3 beta) (Homo sapiens, UniProt P49841); assay: Assay 6 - GSK3β assay (ThermoFisher Z-Lyte); type: biochemical; details: geometric mean; ATP Conc: 10 μM; read-out: Assay 6 (GSK3β FRET-Z-Lyte CR) GMean IC50 (μM) ATP Conc: 10
Sequence of GSK3β (Glycogen synthase kinase-3 beta) (P49841 whole entry): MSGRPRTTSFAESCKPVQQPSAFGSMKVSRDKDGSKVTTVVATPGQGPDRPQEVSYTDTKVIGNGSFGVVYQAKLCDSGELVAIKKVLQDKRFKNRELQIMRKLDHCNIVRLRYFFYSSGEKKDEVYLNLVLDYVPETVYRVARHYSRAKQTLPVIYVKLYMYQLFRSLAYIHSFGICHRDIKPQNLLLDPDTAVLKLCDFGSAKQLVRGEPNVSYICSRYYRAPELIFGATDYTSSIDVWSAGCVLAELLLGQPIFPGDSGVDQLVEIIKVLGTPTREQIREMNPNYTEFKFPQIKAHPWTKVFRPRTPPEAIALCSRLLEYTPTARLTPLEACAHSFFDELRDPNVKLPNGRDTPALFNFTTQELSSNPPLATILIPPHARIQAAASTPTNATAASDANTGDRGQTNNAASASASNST
Method in brief: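 Z-Lyte fluorescence kinase assay with 0.22-0.92 ng GSK3β and 2 μM Ser/Thr 09 peptide in 50 mM HEPES pH 7.5, 10 mM MgCl2, 1 mM EGTA, 0.01% BRIJ-35. Kinase reaction 60 min at room temperature, then 60 min development. 10-point 3-fold titration from 10 μM in 1% DMSO, fitted to a sigmoidal dose-response curve.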

[3] = target: PCSK9 (Homo sapiens, UniProt Q8NBP7, G670E/V474I); assay: biochemical
Sequence of PCSK9 (Q8NBP7 with tags, fused parts or gaps V474I/G670E): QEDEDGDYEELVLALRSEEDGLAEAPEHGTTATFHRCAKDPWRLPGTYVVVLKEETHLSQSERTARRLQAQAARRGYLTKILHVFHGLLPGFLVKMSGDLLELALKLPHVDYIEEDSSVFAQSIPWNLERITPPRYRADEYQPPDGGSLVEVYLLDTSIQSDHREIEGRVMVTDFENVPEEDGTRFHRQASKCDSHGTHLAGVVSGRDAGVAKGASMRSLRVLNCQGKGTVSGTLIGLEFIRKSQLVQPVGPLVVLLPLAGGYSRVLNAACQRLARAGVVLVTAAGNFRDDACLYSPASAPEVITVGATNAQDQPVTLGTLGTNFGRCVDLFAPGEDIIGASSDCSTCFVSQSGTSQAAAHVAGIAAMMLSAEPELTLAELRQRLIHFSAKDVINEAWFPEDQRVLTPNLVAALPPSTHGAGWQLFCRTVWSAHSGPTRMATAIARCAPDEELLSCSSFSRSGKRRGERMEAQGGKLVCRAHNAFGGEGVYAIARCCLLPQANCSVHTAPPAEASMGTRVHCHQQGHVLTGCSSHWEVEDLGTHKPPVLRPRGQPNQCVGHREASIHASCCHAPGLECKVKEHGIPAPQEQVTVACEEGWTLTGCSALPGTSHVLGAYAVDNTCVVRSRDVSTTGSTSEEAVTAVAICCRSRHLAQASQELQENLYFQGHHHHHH

[4] = target: T2, human PCSK9 (Homo sapiens, UniProt Q8NBP7); assay: Assay 2 - Biophysical human PCSK9 assay (SPR, Biacore); type: binding; details: geometric mean; SPR at 30° C; read-out: Assay 2 (PCSK9 BIAcore DBA CR) GMean Kd
T2 construct: biotinylated human PCSK9 (31-692)-Avi-His6; His6 (C)
T2 sequence (Q8NBP7 31-692): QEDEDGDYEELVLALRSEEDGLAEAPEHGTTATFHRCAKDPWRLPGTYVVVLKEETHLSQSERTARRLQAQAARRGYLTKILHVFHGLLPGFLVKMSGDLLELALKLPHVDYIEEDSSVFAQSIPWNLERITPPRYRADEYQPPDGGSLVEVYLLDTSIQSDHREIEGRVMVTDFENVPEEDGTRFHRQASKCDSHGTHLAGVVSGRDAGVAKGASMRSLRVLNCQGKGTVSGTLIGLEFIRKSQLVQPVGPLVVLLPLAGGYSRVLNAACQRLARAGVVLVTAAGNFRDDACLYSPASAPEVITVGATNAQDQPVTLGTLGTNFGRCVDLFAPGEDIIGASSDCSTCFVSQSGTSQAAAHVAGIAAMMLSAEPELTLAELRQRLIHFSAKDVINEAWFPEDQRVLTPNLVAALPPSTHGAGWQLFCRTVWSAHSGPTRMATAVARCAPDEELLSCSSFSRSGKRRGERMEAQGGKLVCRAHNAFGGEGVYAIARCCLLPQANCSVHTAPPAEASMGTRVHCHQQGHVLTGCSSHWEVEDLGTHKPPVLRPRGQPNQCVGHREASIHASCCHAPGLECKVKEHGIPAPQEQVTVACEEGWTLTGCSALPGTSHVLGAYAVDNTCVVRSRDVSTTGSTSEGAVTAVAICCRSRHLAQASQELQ
Protocol: Assay 2—Biophysical Human PCSK9 Assay
The SPR binding experiments were performed on a Biacore S200 optical biosensor unit at 30° C. A Series S Sensor Chip SA that is designed to bind biotinylated molecules for interaction analysis in Biacore systems was equilibrated at room temperature prior to use. The running buffer for protein tethering and subsequent ligand binding experiments was 10 mM HEPES pH 7.4, 150 mM NaCl, 0.05% (v/v) Tween 20 pH 7.4.
For the surface tethering of PCSK9, biotinylated human PCSK9 (31-692)-Avi-His6 at a concentration of 0.5 mg/mL was used. Prior to the surface tethering, the surface was exposed to a solution of 50 mM NaOH, 500 mM NaCl via 3 consecutive injections of this solution with a contact time of 60 s and a flowrate of 10 μL min^−1 to remove non-conjugated streptavidin. The PCSK9 protein was diluted to a concentration of 20 μg/mL using running buffer and injected with a contact time of 180-300 s and a flowrate of 10 μL min^−1 over a single flow channel (typically flow channel 2 or flow channel 4) with the aim to achieve protein capture levels of >5000 response units (RU). Remaining biotin binding sites were blocked via 2 consecutive injections of a 10 μM D-biotin solution in running buffer with a contact time of 60 s and a flowrate of 10 μL min^−1 over all flow-channels. Flow-channels 1 and 3 typically served as a reference surface throughout the subsequent binding experiments.
The binding experiments were all performed at a flow rate of 30 PL min^−1 and by employing the method of single-cycle kinetics. This approach involves the sequential injection of a compound concentration series without regeneration steps. A contact time between 90-150 s was selected, which was followed by a 40 min dissociation phase to allow for a proper estimation of the dissociation rate constant. Test compounds were delivered in DMSO at a concentration of 10 mM and a digital dispenser HP D300 was used to set up the compound concentration series using 6 concentrations. The tested concentrations have been 30, 100, 300, 1000, 3000 and 10000 nM. Prior to injecting any compound, the surfaces were equilibrated by injecting running buffer over them in three separate pulses. The data collection rate was set to 10 Hz.
The raw sensorgrams of the compound injections were first subjected to reference subtraction (subtracting the signal from flow channel 1 and/or 3 from the signal from channels 2 and/or 4 respectively) and then blank subtraction (subtracting the signal from injecting DMSO controls from the reference subtracted data). The resulting double-referenced sensorgrams were then fitted using a 1:1 binding interaction model using the manufactures software package to extract kinetic- and affinity data. Active compounds have been defined by creating a detectable binding signal at the highest compound concentration ([…]) of 3 RUs. Kinetic- and affinity data on active compounds are only provided for those compounds where the binding signal at the highest compound concentration ([…]) is 50% of the theoretical maximum binding signal for a 1:1 binding interaction (Rmax, typically between 15-20 RUs) in order to enable a proper fitting of the data.

[5] = target: T3, hERG potassium ion channel (Homo sapiens, UniProt Q12809); assay: Assay 5 - hERG assay (SyncroPatch 384PE patch clamp, CHO cells); type: cell-based; details: human, CHO-K1 cells over-expressing hERG, pH 7.4, geometric mean, read-out: Assay 5 (hERG Hu CHO IF EPh CR-Syncro) GMean IC50
T3 construct: expressed in transfected cells; host or cells: Chinese hamster ovary K1 (CHO)
T3 sequence (Q12809 whole entry): as the sequence (Q12809 whole entry) above
Method in brief: as §1

[6] = clinical trials, patients; alirocumab compared to placebo; cited from earlier work

Which IC50 [1] does the source give for COc1cccc2ncc(N[C@H]3CC[C@H](Nc4ccc(-n5ccccc5=O)cn4)C3)nc12 [Example 144, 6′-(((1S,3S)-3-((8-Methoxyquinoxalin-2-yl)amino)cyclopentyl)amino)-2H-[1,3′-bipyridin]-2-one] here?
Its IC50 is over 35000 nM.

And the IC50 [2]?
The IC50 was 2.34 µM.

And the IC50 [3]?
Its IC50 is 484 nM.

And the Kd [4]?
Its Kd is 336 nM.

Which IC50 [1] does the source give for O=C(O)[C@@H]1CCC(=O)N1c1ccc(N[C@H]2CC[C@H](Nc3cnc(OC(F)F)cn3)C2)nc1 [Example 79, (S)-1-(6-(((1S,3S)-3-((5-(Difluoromethoxy)pyrazin-2-yl)amino)cyclopentyl)amino)pyridin-3-yl)-5-oxopyrrolidine-2-carboxylic acid] here?
The IC50 was over 40000 nM.

What about the IC50 [2] of the same compound?
The IC50 was over 10 µM.

And the IC50 [3]?
Its IC50 is 827 nM.

What about the Kd [4] of the same compound?
Its Kd is 422 nM.

With Cc1nc(N[C@H]2CC[C@H](Nc3cnc(OC(F)F)cn3)C2)ccc1-n1ccccc1=O [Example 97, 6′-(((1S,3S)-3-((5-(Difluoromethoxy)pyrazin-2-yl)amino)cyclopentyl)amino)-2′-methyl-2H-[1,3′-bipyridin]-2-one] as the compound, how does the IC50 [5] read?
Its IC50 is 35400 nM.

And the IC50 [2]?
The IC50 was over 10 µM.

What about the IC50 [3] of the same compound?
Its IC50 is 63 nM.

What about the Kd [4] of the same compound?
Its Kd is 26 nM.

Which IC50 [1] does the source give for O=c1ccccn1-c1ccc(N[C@H]2CC[C@H](Nc3cnc4c(F)cccc4n3)C2)nc1 [Example 145, 6′-(((1S,3S)-3-((5-Fluoroquinoxalin-2-yl)amino)cyclopentyl)amino)-2H-[1,3′-bipyridin]-2-one] here?
The IC50 was 18500 nM.

And the IC50 [2]?
The IC50 was over 10 µM.

What about the IC50 [3] of the same compound?
The IC50 was 960 nM.

What about the Kd [4] of the same compound?
The Kd was 637 nM.

Which IC50 [1] does the source give for Cc1ncc(N[C@H]2CC[C@H](Nc3ccc(-n4ccccc4=O)cn3)C2)nc1C [Example 2, 6′-(((1S,3S)-3-((5,6-Dimethylpyrazin-2-yl)amino)cyclopentyl)amino)-2H-[1,3′-bipyridin]-2-one] here?
Its IC50 is over 40000 nM.

What about the IC50 [2] of the same compound?
The IC50 was over 10 µM.

And the IC50 [3]?
The IC50 was 112 nM.

What about the Kd [4] of the same compound?
Its Kd is 64 nM.

Which IC50 [1] does the source give for CN1C(=O)CN(c2ccc(N[C@H]3CC[C@H](Nc4cnc(OC(F)F)cn4)C3)nc2)C1=O [Example 92, 1-(6-(((1S,3S)-3-((5-(Difluoromethoxy)pyrazin-2-yl)amino)cyclopentyl)amino)pyridin-3-yl)-3-methylimidazolidine-2,4-dione] here?
The IC50 was 4400 nM.

And the IC50 [2]?
The IC50 was over 10 µM.

And the IC50 [3]?
The IC50 was 59 nM.

What about the Kd [4] of the same compound?
Its Kd is 52 nM.

What does the source list for Cc1cnc(N[C@H]2CC[C@H](Nc3ccc(-n4nc(C)ccc4=O)cn3)C2)cn1 [Example 231, 6-Methyl-2-(6-(((1S,3S)-3-((5-methylpyrazin-2-yl)amino)cyclopentyl)amino)pyridin-3-yl)pyridazin-3 (2H)-one]?
IC50 [1]: > 40100 nM; IC50 [2]: > 10 µM; IC50 [3]: 46 nM; Kd [4]: 35 nM

With Cc1ncc(N[C@H]2CC[C@H](Nc3ccc(N4C(=O)CN(C)C4=O)cn3)C2)nc1C [Example 22, 3-(6-(((1S,3S)-3-((5,6-Dimethylpyrazin-2-yl)amino)cyclopentyl)amino)pyridin-3-yl)-1-methylimidazolidine-2,4-dione] as the compound, how does the IC50 [1] read?
The IC50 was over 40000 nM.

What about the IC50 [2] of the same compound?
The IC50 was over 10 µM.

And the IC50 [3]?
Its IC50 is 107 nM.

What about the Kd [4] of the same compound?
Its Kd is 93 nM.

Which “decrease in LDL levels” value [6] does the source give for alirocumab here?
The value was “about 50%”.

Which IC50 [1] does the source give for O=c1ccccn1-c1ccc(N[C@H]2CC[C@H](Nc3cnc4cccnc4n3)C2)nc1 [Example 143, 6′-(((1S,3S)-3-(Pyrido[2,3-b]pyrazin-3-ylamino)cyclopentyl)amino)-2H-[1,3′-bipyridin]-2-one] here?
The IC50 was over 40000 nM.

And the IC50 [2]?
The IC50 was over 10 µM.

What about the IC50 [3] of the same compound?
The IC50 was 2390 nM.

And the Kd [4]?
The Kd was 1540 nM.

What does the source list for O=c1ccccn1-c1ccc(N[C@H]2CC[C@H](Nc3cnc(OC(F)F)cn3)C2)nc1 [Example 86, 6′-(((1S,3S)-3-((5-(Difluoromethoxy)pyrazin-2-yl)amino)cyclopentyl)amino)-2H-[1,3′-bipyridin]-2-one]?
IC50 [1]: 13400 nM; IC50 [2]: > 10 µM; IC50 [3]: 73 nM; Kd [4]: 64 nM

What does the source list for N#Cc1cncc(N[C@H]2CC[C@H](Nc3ccc(-n4ccccc4=O)cn3)C2)n1 [Example 142, 6-(((1S,3S)-3-((2-Oxo-2H-[1,3′-bipyridin]-6′-yl)amino)cyclopentyl)amino)pyrazine-2-carbonitrile]?
IC50 [1]: > 35400 nM; IC50 [2]: 0.764 µM; IC50 [3]: 1610 nM; Kd [4]: 2420 nM

With Cc1cncc(N[C@H]2CC[C@H](Nc3ccc(-n4ccccc4=O)cn3)C2)n1 [Example 141, 6′-(((1S,3S)-3-((6-Methylpyrazin-2-yl)amino)cyclopentyl)amino)-2H-[1,3′-bipyridin]-2-one] as the compound, how does the IC50 [1] read?
Its IC50 is over 40000 nM.

And the IC50 [2]?
Its IC50 is over 10 µM.

And the IC50 [3]?
Its IC50 is 592 nM.

And the Kd [4]?
Its Kd is 405 nM.

With Nc1ccc2ncc(N[C@H]3CC[C@H](Nc4ccc(-n5ccccc5=O)cn4)C3)nc2n1 [Example 146, 6′-(((1S,3S)-3-((6-Aminopyrido[2,3-b]pyrazin-3-yl)amino)cyclopentyl)amino)-2H-[1,3′-bipyridin]-2-one] as the compound, how does the IC50 [1] read?
Its IC50 is over 40000 nM.

And the IC50 [2]?
The IC50 was over 10 µM.

And the IC50 [3]?
The IC50 was 1480 nM.

What about the Kd [4] of the same compound?
Its Kd is 1500 nM.

What does the source list for Cc1cnc(N[C@H]2CC[C@H](Nc3ccc(N4CC(=O)N(C)C4=O)cn3)C2)cn1 [Example 39, 3-Methyl-1-(6-(((1S,3S)-3-((5-methylpyrazin-2-yl)amino)cyclopentyl)amino)pyridin-3-yl)imidazolidine-2,4-dione]?
IC50 [1]: > 40000 nM; IC50 [2]: > 10 µM; IC50 [3]: 34 nM; Kd [4]: 33 nM

For Cc1ncc(N[C@H]2CC[C@H](Nc3ccc(-n4cccc(C)c4=O)cn3)C2)nc1C [Example 18, 6′-(((1S,3S)-3-((5,6-Dimethylpyrazin-2-yl)amino)cyclopentyl)amino)-3-methyl-2H-[1,3′-bipyridin]-2-one], which IC50 [1] is on record?
The IC50 was over 40000 nM.

And the IC50 [2]?
The IC50 was over 10 µM.

What about the IC50 [3] of the same compound?
Its IC50 is 17 nM.

What about the Kd [4] of the same compound?
Its Kd is 14 nM.

Which IC50 [1] does the source give for O=c1ccccn1-c1ccc(N[C@H]2CC[C@H](Nc3cnc(OC(F)(F)F)cn3)C2)nc1 [Example 111, 6′-(((1S,3S)-3-((5-(Trifluoromethoxy)pyrazin-2-yl)amino)cyclopentyl)amino)-2H-[1,3′-bipyridin]-2-one] here?
The IC50 was 20800 nM.

And the IC50 [2]?
Its IC50 is over 10 µM.

What about the IC50 [3] of the same compound?
The IC50 was 149 nM.

What about the Kd [4] of the same compound?
The Kd was 128 nM.
